The target of the assay is T1, CsDOP1 (Chilo suppressalis, UniProt A0A0K0QVU3).
T1 construct: gene DOP1; receptor in pcDNA3, stably expressed in HEK 293 cells; GPCR coupled to Gs (cAMP increase)
T1 sequence (A0A0K0QVU3 1-409): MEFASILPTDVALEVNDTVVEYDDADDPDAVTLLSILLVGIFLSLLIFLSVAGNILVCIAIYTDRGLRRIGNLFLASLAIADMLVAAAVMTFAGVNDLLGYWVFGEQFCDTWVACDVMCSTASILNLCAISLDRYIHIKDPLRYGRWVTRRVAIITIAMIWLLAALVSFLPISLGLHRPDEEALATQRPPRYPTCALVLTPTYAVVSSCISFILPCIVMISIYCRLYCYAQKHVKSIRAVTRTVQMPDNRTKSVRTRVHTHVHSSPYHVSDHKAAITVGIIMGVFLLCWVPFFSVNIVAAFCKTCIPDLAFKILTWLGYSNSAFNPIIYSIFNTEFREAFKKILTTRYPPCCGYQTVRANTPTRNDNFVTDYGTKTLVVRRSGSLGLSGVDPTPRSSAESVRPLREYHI
Description: intracellular cAMP accumulation. In kind it is cell-based. (In general: cAMP levels reflect the balance of adenylyl cyclase and phosphodiesterase activity.)

Each structure is given as a SMILES string. pEC50: −log10 of the molar value.

Take `NCCc1ccc(O)c(O)c1` [dopamine]: the pEC50 is 8.71.

As a reminder, the pEC50 is the negative decadic logarithm of the EC50, by convention in mol/L. A higher pEC50 goes with a low EC50.

Values taken from publication PMC4503959, “Dopamine modulates hemocyte phagocytosis via a D1-like receptor in the rice stem borer, Chilo suppressalis” (Scientific Reports, 2015).
